Experimental data: patent US9377460B2 (priority 2009, dated 2016)

Tests used:
[1] = tested on: IFN-gamma-secreting T cells; assay type: cell-based, human; conditions: for Proportion of responders to the Rv3615c peptide pool who respond to the individual peptide, LTBI % / Proportion of responders to the Rv3615c peptide pool who respond to the individual peptide, LTBI n: LTBI subjects; for Proportion of responders to the Rv3615c peptide pool who respond to the individual peptide, LTBI n / Proportion of responders to the Rv3615c peptide pool who respond to the individual peptide, Cases n: subjects responding/pool responders tested; for Proportion of responders to the Rv3615c peptide pool who respond to the individual peptide, Cases % / Proportion of responders to the Rv3615c peptide pool who respond to the individual peptide, Cases n: active TB cases
[2] = tested on: CD4-positive T cells; assay: FACS analysis following cytokine capture assay (IFN-gamma / IL-2); assay type: cell-based, human; conditions: subject T416 (LTBI), 6 hour stimulation

Sequence | Proportion of responders to the Rv3615c peptide pool who respond to the individual peptide, LTBI % [1] [%] | Proportion of responders to the Rv3615c peptide pool who respond to the individual peptide, LTBI n [1] | Proportion of responders to the Rv3615c peptide pool who respond to the individual peptide, Cases % [1] [%] | Proportion of responders to the Rv3615c peptide pool who respond to the individual peptide, Cases n [1] | CD4 T cells secreting IFN-gamma only, relative size of subset [2] | CD4 T cells secreting IL-2 only, relative size of subset [2] | CD4 T cells secreting both IFN-gamma and IL-2, relative size of subset [2]
AHNALGSSLHTAGVD (listed as Mycobacterium tuberculosis) [p13, 15mer peptide of Rv3615c] | 0 | 0/4 | 21 | 3/14 |  |  | 
AITHGPYCSQFNDTL (listed as Mycobacterium tuberculosis) [p9, 15mer peptide of Rv3615c] | 40 | 2/5 | 0 | 0/15 |  |  | 
ASHHDNAAVDASSGV (listed as Mycobacterium tuberculosis) [p4, 15mer peptide of Rv3615c] | 20 | 1/5 | 13 | 2/15 |  |  | 
ASSGVEAAAGLGESV (listed as Mycobacterium tuberculosis) [p6, 15mer peptide of Rv3615c] | 0 | 0/5 | 7 | 1/15 |  |  | 
DEAWRKAIDGLFT (listed as Mycobacterium tuberculosis) [p19, carboxy-terminal peptide of Rv3615c] | 25 | 1/4 | 15 | 2/13 |  |  | 
EAAAGLGESVAITHG (listed as Mycobacterium tuberculosis) [p7, 15mer peptide of Rv3615c] | 0 | 0/5 | 7 | 1/15 |  |  | 
FNDTLNVYLTAHNAL (listed as Mycobacterium tuberculosis) [p11, 15mer peptide of Rv3615c] | 0 | 0/5 | 27 | 4/15 |  |  | 
GSSLHTAGVDLAKSL (listed as Mycobacterium tuberculosis) [p14, 15mer peptide of Rv3615c] | 50 | 2/4 | 79 | 11/14 | smallest population | second largest population | dominant population
IYSEADEAWRKAIDG (listed as Mycobacterium tuberculosis) [p18, 15mer peptide of Rv3615c] | 25 | 1/4 | 8 | 1/13 |  |  | 
LAKSLRIAAKIYSEA (listed as Mycobacterium tuberculosis) [p16, 15mer peptide of Rv3615c] | 100 | 4/4 | 69 | 9/13 | smallest population | second largest population | dominant population
LGESVAITHGPYCSQ (listed as Mycobacterium tuberculosis) [p8, 15mer peptide of Rv3615c] | 0 | 0/5 | 7 | 1/15 |  |  | 
MTENLTVQPERLGVL (listed as Mycobacterium tuberculosis) [p1, 15mer peptide of Rv3615c] | 0 | 0/5 | 7 | 1/15 |  |  | 
NAAVDASSGVEAAAG (listed as Mycobacterium tuberculosis) [p5, 15mer peptide of Rv3615c] | 20 | 1/5 | 13 | 2/15 |  |  | 
NVYLTAHNALGSSLH (listed as Mycobacterium tuberculosis) [p12, 15mer peptide of Rv3615c] | 40 | 2/5 | 43 | 6/14 |  |  | 
PYCSQFNDTLNVYLT (listed as Mycobacterium tuberculosis) [p10, 15mer peptide of Rv3615c] | 40 | 2/5 | 40 | 6/15 |  |  | 
RIAAKIYSEADEAWR (listed as Mycobacterium tuberculosis) [p17, 15mer peptide of Rv3615c] | 50 | 2/2 | 38 | 5/13 |  |  | 
RLGVLASHHDNAAVD (listed as Mycobacterium tuberculosis) [p3, 15mer peptide of Rv3615c] | 40 | 2/5 | 20 | 3/15 |  |  | 
TAGVDLAKSLRIAAK (listed as Mycobacterium tuberculosis) [p15, 15mer peptide of Rv3615c] | 50 | 2/4 | 71 | 10/14 |  |  | 
TVQPERLGVLASHHD (listed as Mycobacterium tuberculosis) [p2, 15mer peptide of Rv3615c] | 0 | 0/5 | 33 | 5/15 |  |  | 
